Results published in ChEMBL document CHEMBL2401627, “Synthesis of some novel chalcones, flavanones and flavones and evaluation of their anti-inflammatory activity” (Eur J Med Chem, 2013).

How the values were obtained:
[1] = test system: Rattus norvegicus; assay: Antiinflammatory activity in Wistar rat assessed as inhibition of carrageenan-induced hind paw oedema at 20 mg/kg, po administered 30 mins before carrageenan challenge measured after 5 hrs by plethysmometer relative to control; assay type: functional
[2] = test system: Rattus norvegicus; assay: Antiinflammatory activity in Wistar rat assessed as inhibition of carrageenan-induced hind paw oedema at 20 mg/kg, po administered 30 mins before carrageenan challenge measured after 3 hrs by plethysmometer relative to control; assay type: functional
[3] = test system: RAW264.7; assay: Antiinflammatory activity in mouse RAW264.7 cells assessed as inhibition of LPS-induced TNFalpha production at 5 uM treated 30 mins before LPS challenge measured after 3 hrs by ELISA relative to control; assay type: functional
[4] = target: T1, Prostaglandin G/H synthase 1 (Ovis aries, UniProt P05979); assay: Inhibition of ovine COX1
T1 sequence (P05979 whole entry): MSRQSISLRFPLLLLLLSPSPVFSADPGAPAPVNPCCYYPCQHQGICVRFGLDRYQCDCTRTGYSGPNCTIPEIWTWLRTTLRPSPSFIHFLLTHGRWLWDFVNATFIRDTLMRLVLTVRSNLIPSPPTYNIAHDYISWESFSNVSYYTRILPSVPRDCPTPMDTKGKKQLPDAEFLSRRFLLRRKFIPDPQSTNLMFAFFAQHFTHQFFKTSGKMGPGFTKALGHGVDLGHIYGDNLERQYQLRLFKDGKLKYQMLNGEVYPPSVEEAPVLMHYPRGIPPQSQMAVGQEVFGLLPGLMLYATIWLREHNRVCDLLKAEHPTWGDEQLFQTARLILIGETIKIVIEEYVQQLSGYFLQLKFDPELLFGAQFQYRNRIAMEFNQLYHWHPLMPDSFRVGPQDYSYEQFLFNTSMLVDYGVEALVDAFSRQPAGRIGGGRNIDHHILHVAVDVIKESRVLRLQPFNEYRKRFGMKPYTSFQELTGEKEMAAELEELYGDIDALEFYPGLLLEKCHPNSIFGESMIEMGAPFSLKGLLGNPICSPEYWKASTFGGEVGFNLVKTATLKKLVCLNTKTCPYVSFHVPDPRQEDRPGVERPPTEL

[5] = test system: RAW264.7; assay: Antiinflammatory activity in mouse RAW264.7 cells assessed as inhibition of LPS-induced TNFalpha production at 10 uM treated 30 mins before LPS challenge measured after 1 hr by ELISA relative to control; assay type: functional
[6] = test system: RAW264.7; assay: Antiinflammatory activity in mouse RAW264.7 cells assessed as inhibition of LPS-induced TNFalpha production at 10 uM treated 30 mins before LPS challenge measured after 3 hrs by ELISA relative to control; assay type: functional
[7] = test system: RAW264.7; assay: Antiinflammatory activity in mouse RAW264.7 cells assessed as inhibition of LPS-induced TNFalpha production at 5 uM treated 30 mins before LPS challenge measured after 2 hrs by ELISA relative to control; assay type: functional
[8] = test system: RAW264.7; assay: Antiinflammatory activity in mouse RAW264.7 cells assessed as inhibition of LPS-induced TNFalpha production at 10 uM treated 30 mins before LPS challenge measured after 2 hrs by ELISA relative to control; assay type: functional
[9] = test system: RAW264.7; assay: Antiinflammatory activity in mouse RAW264.7 cells assessed as inhibition of LPS-induced TNFalpha production at 5 uM treated 30 mins before LPS challenge measured after 1 hr by ELISA relative to control; assay type: functional
[10] = test system: Rattus norvegicus; assay: Gastrointestinal toxicity in Wistar rat assessed as ulcerogenic index at 60 mg/kg, po after 6 hrs relative to control; assay type: organism-based; set-up: dose 60 mg/kg, route oral; details: in vivo

| Structure (SMILES) | inhibition in vivo at 20 mg/kg [1] [%] | inhibition in vivo at 20 mg/kg [2] [%] | further results |
| --- | --- | --- | --- |
| COc1cc(C2CC(=O)c3c(cc(C)c(Cl)c3C)O2)cc(OC)c1OC (stereo not drawn) | 44.4 | 48.5 | – |
| Cc1cc2c(c(C)c1Cl)C(=O)CC(c1cccc(O)c1)O2 (stereo not drawn) | 44.4 | 46.4 | – |
| Cc1cc2c(c(C)c1Cl)C(=O)CC(c1ccccc1Cl)O2 (stereo not drawn) | 56 | 22.2 | – |
| COc1cc(C)c(Cl)c(C)c1C(=O)/C=C/c1ccccc1 | 75 | 69.2 | – |
| Cc1cc(O)c(C(=O)/C=C/c2ccccc2Cl)c(C)c1Cl | 70 | 33 | – |
| COc1cc(C)c(Cl)c(C)c1C(=O)/C=C/c1ccc(Cl)cc1 | 12.5 | 22.2 | – |
| Cc1cc(O)c(C(=O)/C=C/c2ccccc2[N+](=O)[O-])c(C)c1Cl | 14.3 | 26.3 | – |
| COc1ccc(-c2cc(=O)c3c(C)c(Cl)c(C)cc3o2)cc1 | 28.6 | 58 | – |
| COc1cc(/C=C/C(=O)c2c(O)cc(C)c(Cl)c2C)cc(OC)c1OC | 90.6 | 91.7 | Activity [3]: 104.78 pg/mL; IC50 [4]: 87.5 µM; Activity [5]: 34.99 pg/mL; Activity [6]: 88.83 pg/mL; Activity [7]: 79.77 pg/mL; Activity [8]: 53.77 pg/mL; Activity [9]: 49.42 pg/mL; UI [10]: 0.4 mm |
| COc1ccc(/C=C/C(=O)c2c(O)cc(C)c(Cl)c2C)cc1OC | 82 | 71 | UI [10]: 0.6 mm |
| Cc1cc2c(c(C)c1Cl)C(=O)CC(c1ccccc1)O2 (stereo not drawn) | 27.7 | 43.3 | – |
| COc1ccc(/C=C/C(=O)c2c(OC)cc(C)c(Cl)c2C)cc1 | 12.5 | 16.7 | – |
| Cc1cc2c(c(C)c1Cl)C(=O)CC(c1cccc([N+](=O)[O-])c1)O2 (stereo not drawn) | 51.4 | 53.6 | – |
| COc1cc(/C=C/C(=O)c2c(OC)cc(C)c(Cl)c2C)cc(OC)c1OC | 62.5 | 76.9 | UI [10]: 0.16 mm |
| Cc1cc(O)c(C(=O)/C=C/c2ccc(Cl)cc2)c(C)c1Cl | 36 | 41.6 | – |
| COc1ccc2c(c1)c(CC(=O)O)c(C)n2C(=O)c1ccc(Cl)cc1 [INDOMETHACIN] | 86 | 67 | UI [10]: 1.5 mm |
| COc1ccc(/C=C/C(=O)c2c(OC)cc(C)c(Cl)c2C)cc1OC | 62 | 81 | UI [10]: 0.16 mm |
| COc1cc(-c2cc(=O)c3c(C)c(Cl)c(C)cc3o2)cc(OC)c1OC | 73.3 | 68.4 | UI [10]: 0 mm |
| COc1ccc(C2CC(=O)c3c(cc(C)c(Cl)c3C)O2)cc1OC (stereo not drawn) | 41.7 | 48.5 | – |

| Structure (SMILES) | inhibition in vivo at 20 mg/kg [1] [%] | inhibition in vivo at 20 mg/kg [2] [%] | further results |
| --- | --- | --- | --- |
| COc1cc(C)c(Cl)c(C)c1C(=O)/C=C/c1ccccc1Cl | 12.5 | 27.8 | – |
| Cc1cc(O)c(C(=O)/C=C/c2cccc(O)c2)c(C)c1Cl | 71 | 83 | UI [10]: 0.4 mm |
| COc1ccc(-c2cc(=O)c3c(C)c(Cl)c(C)cc3o2)cc1OC | 22.9 | 43.1 | – |
| Cc1cc2oc(-c3ccc(Cl)cc3)cc(=O)c2c(C)c1Cl | 22.9 | 26.1 | – |
| Cc1cc2c(c(C)c1Cl)C(=O)CC(c1ccccc1O)O2 (stereo not drawn) | 75 | 58.8 | – |
| Cc1cc2oc(-c3ccccc3)cc(=O)c2c(C)c1Cl | 16.2 | 26.3 | – |
| COc1cc(C2CC(=O)c3c(cc(C)c(Cl)c3C)O2)ccc1O (stereo not drawn) | 66 | 44.4 | – |
| COc1ccc(/C=C/C(=O)c2c(O)cc(C)c(Cl)c2C)cc1 | 55 | 50 | – |
| COc1cc(C)c(Cl)c(C)c1C(=O)/C=C/c1ccccc1O | 50 | 33.3 | – |
| COc1cc(C)c(Cl)c(C)c1C(=O)/C=C/c1ccc(N(C)C)cc1 | 18.8 | 22.2 | – |
| Cc1cc2c(c(C)c1Cl)C(=O)CC(c1ccc(N(C)C)cc1)O2 (stereo not drawn) | 81 | 82 | UI [10]: 0 mm |
| COc1ccc(C2CC(=O)c3c(cc(C)c(Cl)c3C)O2)cc1 (stereo not drawn) | 70 | 51.1 | – |
| Cc1cc2c(c(C)c1Cl)C(=O)CC(c1ccc(Cl)cc1)O2 (stereo not drawn) | 70 | 37.8 | – |
| COc1cc(C)c(Cl)c(C)c1C(=O)/C=C/c1cccc([N+](=O)[O-])c1 | 22.2 | 68.2 | – |
| Cc1cc2oc(-c3ccccc3Cl)cc(=O)c2c(C)c1Cl | 57.1 | 36.8 | – |
| Cc1cc(O)c(C(=O)/C=C/c2ccccc2)c(C)c1Cl | 82 | 70 | UI [10]: 0.4 mm |
| COc1cc(C)c(Cl)c(C)c1C(=O)/C=C/c1cccc(O)c1 | 75 | 80.8 | UI [10]: 0.33 mm |
| COc1cc(C)c(Cl)c(C)c1C(=O)/C=C/c1ccccc1[N+](=O)[O-] | 66.7 | 63.6 | – |
| COc1cc(/C=C/C(=O)c2c(OC)cc(C)c(Cl)c2C)ccc1O | 25 | 22.2 | – |
